Source: BindingDB's records for doi:10.1021/acs.jmedchem.8b01201 (Kezar Life Sciences, 2018)

Assays:
[1] = Inhibition of 20S proteosome beta 2 in human MOLT4 cells by ELISA
[2] = Inhibition of 20S proteosome beta 1 in human MOLT4 cells by ELISA
[3] = Inhibition of 20S proteosome beta 1 in mouse A20 cells by ELISA
[4] = target: T1, Proteasome subunit beta type-1 (Homo sapiens, UniProt P20618); test: Inhibition of 20S proteosome beta 1 in human MOLT4 cells by ELISA
T1 sequence (P20618 whole entry): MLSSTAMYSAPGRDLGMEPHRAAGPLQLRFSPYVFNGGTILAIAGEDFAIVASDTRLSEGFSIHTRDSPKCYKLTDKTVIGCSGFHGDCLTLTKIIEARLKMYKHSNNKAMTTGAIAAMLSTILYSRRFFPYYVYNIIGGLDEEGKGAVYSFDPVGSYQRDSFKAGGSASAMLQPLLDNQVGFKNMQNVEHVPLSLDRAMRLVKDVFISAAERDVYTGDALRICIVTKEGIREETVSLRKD

[5] = target: Proteasome subunit beta type-2 (Homo sapiens, UniProt P49721); test: Inhibition of 20S proteosome beta 2 in human MOLT4 cells by ELISA
[6] = target: T2, Proteasome subunit beta type-1 (Mus musculus, UniProt O09061); test: Inhibition of 20S proteosome beta 1 in mouse A20 cells by ELISA
T2 sequence (O09061 whole entry): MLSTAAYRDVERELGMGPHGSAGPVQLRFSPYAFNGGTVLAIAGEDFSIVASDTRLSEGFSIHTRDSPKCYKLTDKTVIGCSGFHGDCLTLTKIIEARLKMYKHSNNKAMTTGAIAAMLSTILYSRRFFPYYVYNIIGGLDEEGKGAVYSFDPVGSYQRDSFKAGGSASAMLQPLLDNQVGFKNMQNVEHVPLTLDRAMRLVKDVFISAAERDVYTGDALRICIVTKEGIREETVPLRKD

Chain of Proteasome subunit beta type-2 (P49721 whole entry): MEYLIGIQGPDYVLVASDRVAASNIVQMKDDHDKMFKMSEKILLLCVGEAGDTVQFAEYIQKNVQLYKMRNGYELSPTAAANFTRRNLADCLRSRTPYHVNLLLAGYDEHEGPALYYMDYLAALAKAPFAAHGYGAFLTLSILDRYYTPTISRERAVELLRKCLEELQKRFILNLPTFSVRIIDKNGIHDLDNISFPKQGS

IC50 [1]	IC50 [2]	IC50 [3]	IC50 [4]	IC50 [5]	IC50 [6]	SMILES
> 25 µM	> 25 µM	–	–	–	–	COc1ccc(C[C@H](NC(=O)[C@@H](C)NC(=O)[C@H]2CC[C@H](O)CC2)C(=O)N[C@@H](CC2=CCCC2)C(=O)[C@@]2(C)CO2)cc1
–	> 10.6 µM	> 25 µM	–	–	–	COc1ccc([C@@H](O)[C@H](NC(=O)[C@H](C)NC(=O)CN2CCOCC2)C(=O)N[C@@H](CC2=CCCC2)C(=O)[C@@]2(C)CO2)cc1 [Kzr-616]
–	–	–	> 25 µM	> 25 µM	–	COc1ccc(C[C@H](NC(=O)[C@@H](C)NC(=O)[C@H]2CC[C@H](O)CC2)C(=O)N[C@@H](Cc2ccccc2)C(=O)[C@@]2(C)CO2)cc1
–	> 25 µM	–	–	0.413 µM	> 25 µM	Cc1ccc(CC[C@H](NC(=O)[C@H](Cc2ccccc2)NC(=O)[C@H](CC(C)C)NC(=O)CN2CCCCCC2)C(=O)[C@@]2(C)CO2)cc1
–	> 250 µM	–	–	–	> 250 µM	CC(C)C[C@H](NC(=O)CN1CCCCCC1)C(=O)N[C@@H](Cc1ccccc1)C(=O)N[C@@H](Cc1ccccc1)C(=O)[C@@]1(C)CO1
